Measured values reported in patent US20100004333A1, “COMPOSITIONS AND METHODS FOR TREATING CARDIOVASCULAR DISORDERS” (priority 2004, published 2010).
Read-outs that look alike come from different tables or passages of the source.

Columns and labels:
[1] = tested on: apoE−/− mice; assay: Atherosclerosis in apoE−/− mice: probucol versus DTBP versus BP, 5 months; format: in vivo; conditions: for Atherosclerosis (lesion size) at the arch and descending aorta: 1% probucol, 0.02% BP; for Macrophages lesion area (Mac-3+): FIG. 12a, f; for Proliferating cells (PCNA+): FIG. 12g; for Aortic content of neutral lipids (cholesterylesters and triglycerides): FIG. 12d; for Plasma cholesterol: FIG. 12c
Text: ApoE−/− mouse model. Four groups of male apoE−/− mice (8-10 weeks, Animal Resources Centre, Perth, Australia) were fed a high fat diet based on Harlan Teklad diet TD88137±1% (wt/wt) probucol (96% purity, a gift from AstraZeneca, Sweden), 0.02% DTBP, or 0.02% BP (Polysciences, Warrington, Pa.) for 5 months. Tissue harvesting and analyses were done as described in Examples 1 and 3, using 15 and 10 mice of each group for biochemical and histological analyses, respectively. Histology and immunohistochemistry. Aortic lesion assessment was carried out at four sites (sinus, arch, thoracic and abdominal aorta) as described in Example 1. Immediately adjacent sections were employed for immunohistochemistry, using Mac-3 (macrophages, dilution 1:200, DAKO), PCNA (cell proliferation, dilution 1:500, DAKO) and anti-rat HO-1 monoclonal antibody (dilution 1:50, Santa Cruz) with avidin-biotin-horseradish peroxidase for signal detection (Vectorstain Elite ABC Kit, Vector Laboratories). Apoptosis was assessed using the TUNEL assay kit (Roche) according to the manufacture's instructions. Digital images were taken for quantitative morphometric analysis. Mac-3^+ areas were determined using Adobe Photoshop V6.0 by tracing. Total cell profiles, TUNEL^+ and PCNA^+ cells were counted manually at high magnification (40× objective). A single operator using coded samples performed all analyses blinded. Heme oxygenase. Heme oxygenase activity was determined in microsomes prepared from homogenized aortic tissue and assessed by HPLC as described in Circulation 2004, 110: 1855-1860. Statistics. All data are expressed as mean±SEM. One-way ANOVA and the student-Newman-Keul's test were used to evaluate differences between groups, with P<0.05 considered significant.

[2] = parameters: species or system rabbits; conditions: rabbit, in vivo
Procedure: Rabbit aortic balloon-injury model. Four groups of male New Zealand White rabbits (1.8-2.2 kg, Merunga Farm, Coffs Harbour, Australia), matched for body weight and baseline plasma cholesterol, were fed 100 g per day of normal chow±1% probucol, 0.02% DTBP, or 0.02% BP (wt/wt) for up to nine weeks. Aortic balloon-injury (ABI) was carried out at the end of week three, resulting in complete endothelial denudation. Harvesting of aortas was done after a further 6 weeks (n=6 per group). Aortic lesion assessment was carried out at the 3rd pair of lumber arteries in NZW rabbits as described in Circulation 2003, 107:2031-2036. Statistics. Data are expressed as mean±SEM. One-way ANOVA and the student-Newman-Keul's test were used to evaluate differences between groups, with P<0.05 considered significant.
To control for probucol's cholesterol-lowering effect, the animals were matched for baseline plasma cholesterol, and fed them a limited amount (100 g/day) of standard diet±the respective drug.

[3] = tested on: heme oxygenase-1 (HO-1); assay: Heme oxygenase-1 expression, mRNA and heme oxygenase activity in rabbit aorta after balloon injury; format: in vivo, rabbits; conditions: for Tissue levels of HO-1 mRNA / Heme oxygenase activity in aorta: 4 days after ABI; for Tissue levels of HO-1 mRNA: FIG. 16b; for Heme oxygenase activity in aorta: FIG. 16c; for HO-1 expression in the media of damaged aortas (immunohistochemistry): 4 days after balloon injury, FIG. 16a
[4] = tested on: New Zealand White rabbits; assay: Apoptosis (TUNEL) and proliferation (PCNA) of vascular cells after aortic balloon injury in rabbits; format: in vivo; conditions: for Cell proliferation (PCNA+ cells): FIG. 16e; for Apoptosis (TUNEL+ cells): FIG. 16d
Text: Materials and methods were as described in Example 6, except that for some experiments, aortas were also harvested 4 days (n=8 per group) after balloon injury. Sections immediately adjacent sections to those used for lesion assessment were employed for immunohistochemistry, using CD31 (endothelium, dilution 1:50, DAKO), Mac-3 (macrophages, dilution 1:200, DAKO), PCNA (cell proliferation, dilution 1:500, DAKO) and anti-rat HO-1 monoclonal antibody (dilution 1:50, Santa Cruz) with avidin-biotin-horseradish peroxidase for signal detection (Vectorstain Elite ABC Kit, Vector Laboratories). Apoptosis was assessed using the TUNEL assay kit (Roche) according to the manufacture's instructions. Digital images were taken for quantitative morphometric analysis. Intimal, medial and Mac-3^+ areas were determined using Adobe Photoshop V6.0 by tracing. Re-endothelialization was determined in longitudinal sections as the distance of CD31^+ cells from the branch orifice using Scion Image Software (Scion, ML, USA). Total cell profiles, TUNEL^+ and PCNA^+ cells were counted manually at high magnification (40× objective).

[5] = day 4 after aortic balloon injury
[6] = day 42 after aortic balloon injury

| Structure (SMILES) | Atherosclerosis (lesion size) at the arch and descending aorta ([1]; 0.02% DTBP, 5 months, FIG. 12b) | Macrophages lesion area (Mac-3+) ([1]; apoE−/− mice, 5 months) | Proliferating cells (PCNA+) ([1]; apoE−/− mice, 5 months) | Aortic content of neutral lipids (cholesterylesters and triglycerides) ([1]; apoE−/− mice, 5 months) | Total drug in the vessel wall [2] | Tissue levels of HO-1 mRNA [3] | Heme oxygenase activity in aorta [3] | HO-1 expression in the media of damaged aortas (immunohistochemistry) [3] | Cell proliferation (PCNA+ cells) ([4]; day 4 after ABI) | Apoptosis (TUNEL+ cells) [4, 5] | Cell proliferation (PCNA+ cells) ([4]; day 42 after ABI) | Apoptosis (TUNEL+ cells) [4, 6] | Lesion size at the aortic root ([1]; 0.02% DTBP, 5 months, FIG. 12b) | HDL-cholesterol ([1]; apoE−/− mice, 0.02% DTBP, 5 months, FIG. 12h) | Plasma cholesterol ([1]; apoE−/− mice, 5 months) | Anti-atherosclerotic activity relative to probucol ([1]; judged from aortic drug concentration and lesion inhibition) | Total drug in the vessel wall ([2]; male, New Zealand White, 9 weeks) | Bioavailability relative to probucol [2] |
| --- | --- | --- | --- | --- | --- | --- | --- | --- | --- | --- | --- | --- | --- | --- | --- | --- | --- | --- |
| CC(C)(Sc1cc(C(C)(C)C)c(O)c(C(C)(C)C)c1)Sc1cc(C(C)(C)C)c(O)c(C(C)(C)C)c1 [probucol] | significantly inhibited | significant decrease | significant decrease | decreased | 663±114 pmol total drug per mg protein | significantly increased | significantly increased | induced HO-1 expression | not day 4 | significantly enhanced apoptosis | significant decrease in cell proliferation | not at day 42 | – | – | – | – | – | – |
| CC(C)(C)c1cc(SSc2cc(C(C)(C)C)c(O)c(C(C)(C)C)c2)cc(C(C)(C)C)c1O [DTBP, 4,4′-dithiobis(2,6-di-tert-butyl-phenol)] | significantly inhibited | significant decrease | significant decrease | decreased | – | significantly increased | significantly increased | induced HO-1 expression | not day 4 | significantly enhanced apoptosis | significant decrease in cell proliferation | not at day 42 | did not increase | does not lower HDL-cholesterol | did not increase medium lesion size at the aortic root (FIG. 12b) or affect plasma cholesterol | greater anti-atherosclerotic activity than probucol | 235±64 pmol total drug per mg protein | greater bioavailability than probucol |
| CC(C)(C)c1cc(-c2cc(C(C)(C)C)c(O)c(C(C)(C)C)c2)cc(C(C)(C)C)c1O [BP, 3,3′,5,5′-tetra-tert-butyl-4,4′-bisphenol] | failed | failed to affect | failed to affect | – | 614±258 pmol total drug per mg protein | – | – | but not BP, induced HO-1 expression | – | not BP | – | – | – | – | failed | – | – | – |
